Literature values, collected in patent US11065266B2, “Method of treating melanoma using an inhibitor of an atypical protein kinase C” (UNIVERSITY OF SOUTH FLORIDA, priority 2016, dated 2021).

Biological target: T1, PKC-ι (Homo sapiens, UniProt P41743)
T1 sequence (P41743 1-596): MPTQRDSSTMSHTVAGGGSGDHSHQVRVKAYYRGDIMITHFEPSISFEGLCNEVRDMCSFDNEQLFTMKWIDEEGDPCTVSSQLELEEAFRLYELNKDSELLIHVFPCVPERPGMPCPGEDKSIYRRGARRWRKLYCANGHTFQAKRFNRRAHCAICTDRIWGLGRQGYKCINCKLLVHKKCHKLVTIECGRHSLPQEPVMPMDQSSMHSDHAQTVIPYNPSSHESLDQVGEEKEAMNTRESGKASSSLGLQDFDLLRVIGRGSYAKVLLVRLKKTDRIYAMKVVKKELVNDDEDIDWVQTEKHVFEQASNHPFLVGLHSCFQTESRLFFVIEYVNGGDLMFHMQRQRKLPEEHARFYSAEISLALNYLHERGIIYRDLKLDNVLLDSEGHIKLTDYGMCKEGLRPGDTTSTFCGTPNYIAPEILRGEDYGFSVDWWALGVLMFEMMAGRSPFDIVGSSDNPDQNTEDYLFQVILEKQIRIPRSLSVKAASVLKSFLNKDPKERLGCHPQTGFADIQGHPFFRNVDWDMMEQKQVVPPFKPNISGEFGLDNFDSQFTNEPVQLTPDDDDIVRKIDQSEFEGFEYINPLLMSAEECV
Details: cited from earlier work

Row | SMILES | binding to PKC-ι
1 | O=C([O-])CC([S-])C(=O)[O-].[Au+].[Na+].[Na+] (centres unmarked) [Sodium aurothiomalate] | low micromolar range
2 | OC[C@H]1O[C@H]([S-])[C@H](O)[C@@H](O)[C@@H]1O.[Au+] [aurothioglucose] | low micromolar range
